Reference: patent US20260262643A1, “HERBICIDAL BENZOXAZINES” (FMC CORPORATION, priority 2022, published 2026)

Tests used:
[1] = tested on: foxtail, giant; assay: Test A postemergence; assay type: in vivo, Setaria faberi
In short: (§1)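 Greenhouse pot test, 10 days. Compound (non-phytotoxic solvent, surfactant) sprayed on soil at seeding or on seedlings at one- to two-leaf stage. Visual injury rated 0–100 against untreated plants.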

[2] = tested on: wheat; assay: Test A postemergence; assay type: in vivo, Triticum aestivum
In short: as §1

[3] = tested on: kochia; assay: Test A preemergence; assay type: in vivo, Bassia scoparia
In short: as §1

[4] = tested on: foxtail, giant; assay: Test A preemergence; assay type: in vivo, Setaria faberi
In short: as §1

[5] = tested on: ragweed; assay: Test A postemergence; assay type: in vivo, Ambrosia artemisiifolia
In short: as §1

[6] = tested on: blackgrass; assay: Test A postemergence; assay type: in vivo, Alopecurus myosuroides
In short: as §1

[7] = tested on: ryegrass, Italian; assay: Test A preemergence; assay type: in vivo, Lolium multiflorum
In short: as §1

[8] = tested on: rice; assay: Test B flooded paddy test; assay type: in vivo, Oryza sativa; settings: 250 g ai/ha, Flood, 13 days, 0 to 100 scale (0 no effect, 100 complete control)
In short: (§2)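 Plants at the 2-leaf stage were flooded to 3 cm above the soil, and test compounds were applied directly into the paddy water, with that depth held throughout. After 13 days in a greenhouse, injury was rated visually against untreated controls on a 0–100 scale (100 = complete control).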

[9] = tested on: barnyardgrass; assay: Test A preemergence; assay type: in vivo, Echinochloa crusgalli
In short: as §1

[10] = tested on: Pigweed, Redroot; assay: Test A postemergence; assay type: in vivo, Amaranthus retroflexus
Source text: Seeds of plant species selected from barnyardgrass (Echinochloa crusgalli), blackgrass (Alopecurus myosuroides), corn (Zea mays), foxtail, giant (giant foxtail, Setaria faberi), goosegrass (Eleusine indica), kochia (Bassia scoparia), oat, wild (wild oat, Avena fatua), pigweed, palmer (palmer amaranth, palmer pigweed, Amaranthus palmeri), Pigweed, Redroot (redroot pigweed, Amaranthus retroflexus), ragweed (common ragweed, Ambrosia artemisiifolia), ryegrass, Italian (italian ryegrass, Lolium multiflorum), soybean (Glycine max), and wheat (Triticum aestivum) were planted into a blend of loam soil and sand and treated preemergence with a directed soil spray using test chemicals formulated in a non-phytotoxic solvent mixture which included a surfactant. At the same time, plants selected from these crops and weed species and also galium (catchweed bedstraw, Galium aparine) and horseweed (Erigeron canadensis) were planted in pots containing the same blend of loam soil and sand and treated with postemergence applications of test chemicals formulated in the same manner. Plants ranged in height from 2 to 10 cm and were in the one- to two-leaf stage for the postemergence treatment. Treated plants and untreated controls were maintained in a greenhouse for 10 days, after which time all treated plants were compared to untreated controls and visually evaluated for injury. Plant response ratings, summarized in Table A, are based on a 0 to 100 scale where 0 is no effect and 100 is complete control. A dash (-) response means no test result.

[11] = tested on: Pigweed, Redroot; assay: Test A preemergence; assay type: in vivo, Amaranthus retroflexus
In short: as §1

[12] = tested on: ragweed; assay: Test A preemergence; assay type: in vivo, Ambrosia artemisiifolia
In short: as §1

[13] = tested on: corn; assay: Test A postemergence; assay type: in vivo, Zea mays
In short: as §1

[14] = tested on: ducksalad; assay: Test B flooded paddy test; assay type: in vivo, Heteranthera limosa; settings: 250 g ai/ha, Flood, 13 days, 0 to 100 scale (0 no effect, 100 complete control)
In short: as §2

[15] = tested on: galium; assay: Test A postemergence; assay type: in vivo, Galium aparine
In short: as §1

[16] = tested on: barnyardgrass; assay: Test A postemergence; assay type: in vivo, Echinochloa crusgalli
In short: as §1

[17] = tested on: sedge, umbrella; assay: Test B flooded paddy test; assay type: in vivo, Cyperus difformis; settings: 250 g ai/ha, Flood, 13 days, 0 to 100 scale (0 no effect, 100 complete control)
In short: as §2

[18] = tested on: kochia; assay: Test A postemergence; assay type: in vivo, Bassia scoparia
In short: as §1

[19] = tested on: ryegrass, Italian; assay: Test A postemergence; assay type: in vivo, Lolium multiflorum
In short: as §1

[20] = tested on: barnyardgrass; assay: Test B flooded paddy test; assay type: in vivo, Echinochloa crus-galli; settings: 250 g ai/ha, Flood, 13 days, 0 to 100 scale (0 no effect, 100 complete control)
In short: as §2

[21] = 125 g ai/ha, postemergence, 10 days, visual injury, 0 to 100 scale (0 no effect, 100 complete control)
[22] = 500 g ai/ha, Postemergence, 0 to 100 scale
[23] = 125 g ai/ha, visual injury after 10 days, 0 to 100 scale, 0 is no effect, 100 is complete control
[24] = 500 g ai/ha, 0 to 100 scale (0 no effect, 100 complete control), 10 days
[25] = 1000 g ai/ha, Postemergence, 0 to 100 scale
[26] = 1000 g ai/ha, 0 to 100 scale (0 no effect, 100 complete control), 10 days

CCC1CN(C(=O)c2cncc(-n3cncn3)c2)c2cccc(Cl)c2O1 (racemic) [Compound 6]
Plant response rating, Foxtail, Giant [1, 21]: 0
Plant response rating, Foxtail, Giant [1, 22]: 10
Plant response rating, Wheat [2, 21]: 0
Plant response rating, Wheat [2, 22]: 0
Plant response rating, Kochia [3, 23]: 0
Plant response rating, Kochia [3, 24]: 0
Plant response rating, Foxtail, Giant [4, 23]: 0
Plant response rating, Foxtail, Giant [4, 24]: 60
Plant response rating, Ragweed [5, 21]: 0
Plant response rating, Ragweed [5, 22]: 0
Plant response rating, Blackgrass [6, 21]: 0
Plant response rating, Blackgrass [6, 22]: 0
Plant response rating, Ryegrass, Italian [7, 23]: 20
Plant response rating, Ryegrass, Italian [7, 24]: 50
Plant response rating, Rice [8]: 0
Plant response rating, Barnyardgrass [9, 23]: 0
Plant response rating, Barnyardgrass [9, 24]: 0
Plant response rating, Pigweed, Redroot [10, 21]: 0
Plant response rating, Pigweed, Redroot [10, 22]: 30
Plant response rating, Pigweed, Redroot [11, 23]: 0
Plant response rating, Pigweed, Redroot [11, 24]: 20
Plant response rating, Ragweed [12, 23]: 0
Plant response rating, Ragweed [12, 24]: 30
Plant response rating, Corn [13, 21]: 0
Plant response rating, Corn [13, 22]: 0
Plant response rating, Ducksalad [14]: 0
Plant response rating, Galium [15, 21]: 0
Plant response rating, Galium [15, 22]: 30
Plant response rating, Barnyardgrass [16, 21]: 0
Plant response rating, Barnyardgrass [16, 22]: 10
Plant response rating, Sedge, Umbrella [17]: 0
Plant response rating, Kochia [18, 21]: 0
Plant response rating, Kochia [18, 22]: 0
Plant response rating, Ryegrass, Italian [19, 21]: 50
Plant response rating, Ryegrass, Italian [19, 22]: 40
Plant response rating, Barnyardgrass [20]: 0

C[C@H]1CN(C(=O)c2cccc(-n3cnnn3)c2)c2cccc(Cl)c2O1 [Compound 115]
Plant response rating, Foxtail, Giant [1, 25]: 40
Plant response rating, Wheat [2, 25]: 50
Plant response rating, Kochia [3, 26]: 40
Plant response rating, Foxtail, Giant [4, 26]: 90
Plant response rating, Ragweed [5, 25]: 0
Plant response rating, Blackgrass [6, 25]: 50
Plant response rating, Ryegrass, Italian [7, 26]: 90
Plant response rating, Rice [8]: 0
Plant response rating, Barnyardgrass [9, 26]: 70
Plant response rating, Pigweed, Redroot [10, 25]: 30
Plant response rating, Pigweed, Redroot [11, 26]: 80
Plant response rating, Ragweed [12, 26]: 30
Plant response rating, Corn [13, 25]: 40
Plant response rating, Ducksalad [14]: 0
Plant response rating, Galium [15, 25]: 70
Plant response rating, Barnyardgrass [16, 25]: 50
Plant response rating, Sedge, Umbrella [17]: 0
Plant response rating, Kochia [18, 25]: 0
Plant response rating, Ryegrass, Italian [19, 25]: 60
Plant response rating, Barnyardgrass [20]: 0

CC1CN(C(=O)c2cccc(-n3cncn3)c2)c2cccc(F)c2O1 (centres unmarked) [Compound 20]
Plant response rating, Foxtail, Giant [1, 25]: 90
Plant response rating, Wheat [2, 25]: 70
Plant response rating, Kochia [3, 26]: 80
Plant response rating, Foxtail, Giant [4, 26]: 100
Plant response rating, Ragweed [5, 25]: 30
Plant response rating, Blackgrass [6, 25]: 70
Plant response rating, Ryegrass, Italian [7, 26]: 100
Plant response rating, Rice [8]: 0
Plant response rating, Barnyardgrass [9, 26]: 90
Plant response rating, Pigweed, Redroot [10, 25]: 30
Plant response rating, Pigweed, Redroot [11, 26]: 80
Plant response rating, Ragweed [12, 26]: 80
Plant response rating, Corn [13, 25]: 60
Plant response rating, Ducksalad [14]: 85
Plant response rating, Galium [15, 25]: 90
Plant response rating, Barnyardgrass [16, 25]: 90
Plant response rating, Sedge, Umbrella [17]: 35
Plant response rating, Kochia [18, 25]: 30
Plant response rating, Ryegrass, Italian [19, 25]: 70
Plant response rating, Barnyardgrass [20]: 0

CC1CN(C(=O)c2ccnc(-n3cncn3)c2)c2ccccc2O1 (centres unmarked) [Compound 19]
Plant response rating, Foxtail, Giant [1, 25]: 60
Plant response rating, Wheat [2, 25]: 70
Plant response rating, Kochia [3, 26]: 60
Plant response rating, Foxtail, Giant [4, 26]: 100
Plant response rating, Ragweed [5, 25]: 0
Plant response rating, Blackgrass [6, 25]: 70
Plant response rating, Ryegrass, Italian [7, 26]: 80
Plant response rating, Rice [8]: 0
Plant response rating, Barnyardgrass [9, 26]: 90
Plant response rating, Pigweed, Redroot [10, 25]: 40
Plant response rating, Pigweed, Redroot [11, 26]: 0
Plant response rating, Ragweed [12, 26]: 80
Plant response rating, Corn [13, 25]: 50
Plant response rating, Ducksalad [14]: 0
Plant response rating, Galium [15, 25]: 90
Plant response rating, Barnyardgrass [16, 25]: 80
Plant response rating, Sedge, Umbrella [17]: 0
Plant response rating, Kochia [18, 25]: 30
Plant response rating, Ryegrass, Italian [19, 25]: 60
Plant response rating, Barnyardgrass [20]: 0

O=C(c1cccc(-n2cncn2)c1)N1CC(C2CC2)Oc2c(Cl)cccc21 (centres unmarked) [Compound 22, (8-Chloro-2-cyclopropyl-2,3-dihydro-4H-1,4-benzoxazin-4-yl)[3-(1H-1,2,4-triazol-1-yl)phenyl]methanone]
pest or weed control at 1000 g/ha ([1]; Setaria faberi, post-emergence, 240 h, 1000 g ai/ha, Postemergence, 0 to 100 scale, read-out: Plant response rating, Foxtail, Giant): 80%
plant injury at 1000 g/ha ([2]; Triticum aestivum, post-emergence, 240 h, 1000 g ai/ha, Postemergence, 0 to 100 scale, read-out: Plant response rating, Wheat): 60%
pest or weed control at 1000 g/ha ([3]; Bassia scoparia, pre-emergence, 240 h, 1000 g ai/ha, 0 to 100 scale (0 no effect, 100 complete control), 10 days, read-out: Plant response rating, Kochia): 50%
pest or weed control at 1000 g/ha ([4]; Setaria faberi, pre-emergence, 240 h, 1000 g ai/ha, 0 to 100 scale (0 no effect, 100 complete control), 10 days, read-out: Plant response rating, Foxtail, Giant): 90%
pest or weed control at 1000 g/ha ([5]; Ambrosia artemisiifolia, post-emergence, 240 h, 1000 g ai/ha, Postemergence, 0 to 100 scale, read-out: Plant response rating, Ragweed): 50%
pest or weed control at 1000 g/ha ([6]; Alopecurus myosuroides, post-emergence, 240 h, 1000 g ai/ha, Postemergence, 0 to 100 scale, read-out: Plant response rating, Blackgrass): 80%
pest or weed control at 1000 g/ha ([7]; Lolium multiflorum, pre-emergence, 240 h, 1000 g ai/ha, 0 to 100 scale (0 no effect, 100 complete control), 10 days, read-out: Plant response rating, Ryegrass, Italian): 90%
plant injury at 250 g/ha ([8]; Oryza sativa, 312 h, read-out: Plant response rating, Rice): 0%
Plant response rating, Barnyardgrass [9, 26]: 90
Plant response rating, Pigweed, Redroot [10, 25]: 60
Plant response rating, Pigweed, Redroot [11, 26]: 60
pest or weed control at 1000 g/ha ([12]; Ambrosia artemisiifolia, pre-emergence, 240 h, 1000 g ai/ha, 0 to 100 scale (0 no effect, 100 complete control), 10 days, read-out: Plant response rating, Ragweed): 20%
Corn plant response rating (crop injury, 0 = no effect, 100 = complete kill) at 1000 g/ha ([13]; Zea mays, post-emergence, 240 h, 1000 g ai/ha, Postemergence, 0 to 100 scale): 70%
pest or weed control at 250 g/ha ([14]; Heteranthera limosa, 312 h, read-out: Plant response rating, Ducksalad): 0%
pest or weed control at 1000 g/ha ([15]; Galium, post-emergence, 240 h, 1000 g ai/ha, Postemergence, 0 to 100 scale, read-out: Plant response rating, Galium): 90%
Plant response rating, Barnyardgrass [16, 25]: 50
pest or weed control at 250 g/ha ([17]; Cyperus difformis, 312 h, read-out: Plant response rating, Sedge, Umbrella): 0%
pest or weed control at 1000 g/ha ([18]; Bassia scoparia, post-emergence, 240 h, 1000 g ai/ha, Postemergence, 0 to 100 scale, read-out: Plant response rating, Kochia): 70%
pest or weed control at 1000 g/ha ([19]; Lolium multiflorum, post-emergence, 240 h, 1000 g ai/ha, Postemergence, 0 to 100 scale, read-out: Plant response rating, Ryegrass, Italian): 60%
pest or weed control at 250 g/ha ([20]; Echinochloa crus-galli, 312 h, read-out: Plant response rating, Barnyardgrass): 0%
